Measurements reported in patent US20260297542A1, “HERBICIDE RESISTANT PLANTS” (SYNGENTA CROP PROTECTION AG, priority 2023, published 2026).
Numbering of substitutions follows the chain as printed.

How the values were obtained:
Assay in all cases: E. coli hemG growth inhibition by herbicide, AtPPO1 variant
Format in all cases: cell-based
Details in all cases: read-out: percentage growth inhibition
AtPPO1 E111F = target: T1, AtPPO1 E111F (Arabidopsis thaliana, UniProt P55826, E111F)
T1 construct: expressed in transfected cells; host or cells: E. coli BL21(DE3) hemG (hemG replaced by CmR), pET24a plasmid
T1 sequence (P55826 35-537 E111F): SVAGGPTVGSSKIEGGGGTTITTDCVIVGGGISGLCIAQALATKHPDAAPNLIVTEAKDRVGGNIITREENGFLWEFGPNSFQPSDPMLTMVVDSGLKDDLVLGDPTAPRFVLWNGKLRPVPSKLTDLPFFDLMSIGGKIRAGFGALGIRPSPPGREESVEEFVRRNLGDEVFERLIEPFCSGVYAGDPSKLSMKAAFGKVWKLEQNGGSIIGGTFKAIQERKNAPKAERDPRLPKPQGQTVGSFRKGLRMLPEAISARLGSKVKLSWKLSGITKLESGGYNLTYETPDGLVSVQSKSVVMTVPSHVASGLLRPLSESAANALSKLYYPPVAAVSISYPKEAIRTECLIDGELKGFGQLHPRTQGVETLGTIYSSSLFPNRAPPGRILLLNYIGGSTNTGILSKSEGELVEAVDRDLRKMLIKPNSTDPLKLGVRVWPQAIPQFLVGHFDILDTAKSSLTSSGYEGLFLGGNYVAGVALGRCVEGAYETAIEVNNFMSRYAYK
Procedure, shortened: (§1)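 Variant plasmids were transformed into hemG-null BL21(DE3) and precultured 24 h with hematin. Washed cells were diluted 1:100 into Terrific broth containing 0.1 mM IPTG and herbicide (6.25 ppm 0 or E; 0.78 ppm B) or DMSO. After 24 h at 37° C, OD600 gave percent inhibition.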

AtPPO1 P154Y = target: T2, AtPPO1 P154Y (Arabidopsis thaliana, UniProt P55826, P154Y)
T2 construct: expressed in transfected cells; host or cells: E. coli BL21(DE3) hemG (hemG replaced by CmR), pET24a plasmid
T2 sequence (P55826 35-537 P154Y): T1 sequence (P55826 35-537 E111F) with F77E, P120Y
Procedure, shortened: as §1

AtPPO1 T431F = target: T3, AtPPO1 T431F (Arabidopsis thaliana, UniProt P55826, T431F)
T3 construct: expressed in transfected cells; host or cells: E. coli BL21(DE3) hemG, pET24a plasmid
T3 sequence (P55826 35-537 T431F): T1 sequence (P55826 35-537 E111F) with F77E, T397F
Procedure, shortened: as §1

AtPPO1 Y426T = target: T4, AtPPO1 Y426T (Arabidopsis thaliana, UniProt P55826, Y426T)
T4 construct: expressed in transfected cells; host or cells: E. coli BL21(DE3) hemG (pET24a, T7 promoter)
T4 sequence (P55826 35-537 Y426T): T1 sequence (P55826 35-537 E111F) with F77E, Y392T
Procedure, shortened: as §1

Compound	inhibition at 6.25 ppm (AtPPO1 E111F) [%]	inhibition at 6.25 ppm (AtPPO1 P154Y) [%]	inhibition at 6.25 ppm (AtPPO1 T431F) [%]	inhibition at 6.25 ppm (AtPPO1 Y426T) [%]	inhibition at 0.78 ppm (AtPPO1 E111F) [%]	inhibition at 0.78 ppm (AtPPO1 P154Y) [%]	inhibition at 0.78 ppm (AtPPO1 T431F) [%]	inhibition at 0.78 ppm (AtPPO1 Y426T) [%]
CCOC(=O)[C@]1(C)CC(c2cc(-n3c(=O)n(C)c(=S)n(C)c3=O)c(F)cc2Cl)=NO1 [Herbicide D, ethyl (5S)-3-[2-chloro-5-(3,5-dimethyl-2,6-dioxo-4-thioxo-1,3,5-triazinan-1-yl)-4-fluoro-phenyl]-5-methyl-4H-isoxazole-5-carboxylate]	29	38	0	12				
C#CCN1C(=O)C(F)(F)Oc2cc(F)c(-n3c(=O)n(C)c(=S)n(C)c3=O)cc21 [Herbicide B, trifludimoxazin]					27	34	41	8
CC(C)N(C)S(=O)(=O)NC(=O)c1cc(-n2c(=O)cc(C(F)(F)F)n(C)c2=O)c(F)cc1Cl [Herbicide E, saflufenacil]	66	68	37	11				
